# From patent US20090326003A1, “PYRAZOLO (3, 4-B) PYRIDINE DERIVATIVES AS PDE4 INHIBITORS” (priority 2006, published 2009)
# Counter-ions that a name gives are not always drawn.
# Target: T1, PDE4B (human recombinant) (Homo sapiens, UniProt Q07343)
# T1 construct: made in house
# Experiment: PDE4B inhibition, fluorescence polarisation (FP) and/or SPA assay
# Type: biochemical
# Conditions: n=1 or average of 2 or more readings, accuracy ±about 0.5 log unit, read-out: PDE4B pIC50 (generally in FP assay) (±about 0.5) (converted)
# From the text: Human recombinant PDE4B, in particular the 2B splice variant thereof (HSPDE4B2B), is disclosed in WO 94/20079 and also M. M. McLaughlin et al., “A low Km, rolipram-sensitive, cAMP-specific phosphodiesterase from human brain: cloning and expression of cDNA, biochemical characterisation of recombinant protein, and tissue distribution of mRNA”, J. Biol. Chem., 1993, 268, 6470-6476. For example, in Example 1 of WO 94/20079, human recombinant PDE4B is described as being expressed in the PDE-deficient yeast Saccharomyces cerevisiae strain GL62, e.g. after induction by addition of 150 uM CuSO4, and 100,000×g supernatant fractions of yeast cell lysates are described for use in the harvesting of PDE4B enzyme.
# The ability of compounds to inhibit catalytic activity at PDE4B or 4D (human recombinant), PDE3 (from bovine aorta), PDE5 (human recombinant) or PDE6 (from bovine retina) can optionally be determined by Scintillation Proximity Assay (SPA) in a 96-well format.
# Test compounds (as a solution in DMSO, preferably about 2 microliter (ul) volume of DMSO solution) are preincubated at ambient temperature (room temperature, e.g. 19-23° C.) in Wallac Isoplates (code 1450-514) with PDE enzyme in 50 mM Tris-HCl buffer pH 7.5, 8.3 mM MgCl2, 1.7 mM EGTA, 0.05% (w/v) bovine serum albumin for 10-30 minutes (usually 30 minutes). The enzyme concentration is adjusted so that no more than 20% hydrolysis of the substrate defined below occurs in control wells without compound, during the incubation. For the PDE3, PDE4B and PDE4D assays, [5′,8-3H]Adenosine 3′,5′-cyclic phosphate (Amersham Pharmacia Biotech, code TRK.559; or Amersham Biosciences UK Ltd, Pollards Wood, Chalfont St Giles, Buckinghamshire HP8 4SP, UK) is added to give 0.05 uCi per well and about 10 nM final concentration. For the PDE5 and PDE6 assays, [8-^3H]Guanosine 3′,5′-cyclic phosphate (Amersham Pharmacia Biotech, code TRK.392) is added to give 0.05 uCi per well and about 36 nM final concentration. Plates containing assay mixture, preferably approx. 100 ul volume of assay mixture, are mixed on an orbital shaker for 5 minutes and incubated at ambient temperature for 1 hour. Phosphodiesterase SPA beads (Amersham Pharmacia Biotech, code RPNQ 0150) are added (about 1 mg per well) to terminate the assay. Plates are sealed and shaken and allowed to stand at ambient temperature for 35 minutes to 1 hour (preferably 35 minutes) to allow the beads to settle. Bound radioactive product is measured using a WALLAC TRILUX 1450 Microbeta scintillation counter. For inhibition curves, 10 concentrations (e.g. 1.5 nM-30 uM) of each compound are assayed. Curves are analysed using ActivityBase and XLfit (ID Business Solutions Limited, 2 Ocean Court, Surrey Research Park, Guildford, Surrey GU2 7QB, United Kingdom) Results are expressed as pIC50 values.
# The ability of compounds to inhibit catalytic activity at PDE4B (human recombinant) or PDE4D (human recombinant) can optionally be determined by IMAP Fluorescence Polarisation (FP) assay (IMAP Explorer kit, available from Molecular Devices Corporation, Sunnydale, Calif., USA; Molecular Devices code: R8062) in 384-well format.
# The IMAP FP assay is able to measure PDE activity in an homogenous, non-radioactive assay format. The FP assay uses the ability of immobilised trivalent metal cations, coated onto nanoparticles (tiny beads), to bind the phosphate group of FI-AMP that is produced on the hydrolysis of fluorescein-labelled (FI) cyclic adenosine mono-phosphate (FI-cAMP) to the non-cyclic FI-AMP form. […] Binding of FI-AMP product to the beads (coated with the immobilised trivalent cations) slows the rotation of the bound FI-AMP and leads to an increase in the fluorescence polarisation ratio of parallel to perpendicular light. Inhibition of the PDE reduces/inhibits this signal increase. […]
# T1 sequence (Q07343 1-564 isoform Q07343-2): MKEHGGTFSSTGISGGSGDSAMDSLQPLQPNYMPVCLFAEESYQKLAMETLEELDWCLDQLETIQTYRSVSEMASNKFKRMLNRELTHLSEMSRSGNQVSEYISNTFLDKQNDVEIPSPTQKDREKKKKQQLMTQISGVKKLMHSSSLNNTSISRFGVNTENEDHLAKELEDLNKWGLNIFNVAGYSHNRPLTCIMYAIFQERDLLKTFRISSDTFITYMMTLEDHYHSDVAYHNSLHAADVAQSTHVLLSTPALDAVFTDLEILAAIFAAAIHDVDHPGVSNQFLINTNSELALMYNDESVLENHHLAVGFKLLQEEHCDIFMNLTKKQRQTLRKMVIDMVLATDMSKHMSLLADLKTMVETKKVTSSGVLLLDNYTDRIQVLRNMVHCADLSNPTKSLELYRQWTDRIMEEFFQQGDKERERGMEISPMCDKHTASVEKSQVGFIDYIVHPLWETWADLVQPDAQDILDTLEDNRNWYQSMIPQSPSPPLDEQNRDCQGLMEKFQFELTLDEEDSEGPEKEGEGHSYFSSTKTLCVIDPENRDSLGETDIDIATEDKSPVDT
row,Compound,IC50
1,"CCc1nc2c(cnn2CC)c(NC2CCOCC2)c1CNC(=O)c1cccc(-c2cccc(C(=O)NCc3c(CC)nc4c(cnn4CC)c3NC3CCOCC3)c2)c1 [Example 10, N,N′-bis{[1,6-diethyl-4-(tetrahydro-2H-pyran-4-ylamino)-1H-pyrazolo[3,4-b]pyridin-5-yl]methyl}-3,3′-biphenyldicarboxamide]",~0.1 nM
2,"CCc1nc2c(cnn2CC)c(NC2CCN(C(N)=O)CC2)c1CNC(=O)CC(C)(C)CC(=O)NCc1c(CC)nc2c(cnn2CC)c1NC1CCN(C(N)=O)CC1 [Example 19, N,N′-bis[(4-{[1-(aminocarbonyl)-4-piperidinyl]amino}-1,6-diethyl-1H-pyrazolo[3,4-b]pyridin-5-yl)methyl]-3,3-dimethylpentanediamide trifluoroacetate]",0.0158 to 0.1 nM
3,"CCc1nc2c(cnn2CC)c(NC2CCN(C(N)=O)CC2)c1CNC(=O)c1ccc(C(=O)NCc2c(CC)nc3c(cnn3CC)c2NC2CCN(C(N)=O)CC2)cc1 [Example 25, N,N′-bis[(4-{[1-(aminocarbonyl)-4-piperidinyl]amino}-1,6-diethyl-1H-pyrazolo[3,4-b]pyridin-5-yl)methyl]-1,4-benzenedicarboxamide]",0.0158 to 0.1 nM
4,"CCc1nc2c(cnn2CC)c(NC2CCN(C(N)=O)CC2)c1CNC(=O)C1CCC(C(=O)NCc2c(CC)nc3c(cnn3CC)c2NC2CCN(C(N)=O)CC2)C1 (stereo not shown) [Example 20, N,N′-bis[(4-{[1-(aminocarbonyl)-4-piperidinyl]amino}-1,6-diethyl-1H-pyrazolo[3,4-b]pyridin-5-yl)methyl]-1,3-cyclopentanedicarboxamide trifluoroacetate]",0.0158 to 0.1 nM
5,"CCc1nc2c(cnn2CC)c(NC2CCOCC2)c1CNC(=O)c1ccc(C(=O)NCc2c(CC)nc3c(cnn3CC)c2NC2CCOCC2)cc1 [Example 22, N,N′-bis{[1,6-diethyl-4-(tetrahydro-2H-pyran-4-ylamino)-1H-pyrazolo[3,4-b]pyridin-5-yl]methyl}-1,4-benzenedicarboxamide]",0.126 to 1 nM
6,"CCc1nc2c(cnn2CC)c(NC2CCOCC2)c1CNC(=O)CCc1ccccc1C(=O)NCc1c(CC)nc2c(cnn2CC)c1NC1CCOCC1 [Example 7, N-{[1,6-diethyl-4-(tetrahydro-2H-pyran-4-ylamino)-1H-pyrazolo[3,4-b]pyridin-5-yl]methyl}-2-[3-({[1,6-diethyl-4-(tetrahydro-2H-pyran-4-ylamino)-1H-pyrazolo[3,4-b]pyridin-5-yl]methyl}amino)-3-oxopropyl]benzamide]",0.0158 to 0.1 nM
7,"CCc1nc2c(cnn2CC)c(NC2CCN(C(N)=O)CC2)c1CNC(=O)Cc1ccc(C(=O)NCc2c(CC)nc3c(cnn3CC)c2NC2CCN(C(N)=O)CC2)cc1 [Example 15, 4-({5-[({[4-({[(4-{[1-(aminocarbonyl)-4-piperidinyl]amino}-1,6-diethyl-1H-pyrazolo[3,4-b]pyridin-5-yl)methyl]amino}carbonyl)phenyl]acetyl}amino)methyl]-1,6-diethyl-1H-pyrazolo[3,4-b]pyridin-4-yl}amino)-1-piperidinecarboxamide trifluoroacetate]",0.0158 to 0.1 nM
8,"CCc1nc2c(cnn2CC)c(NC2CCN(C(N)=O)CC2)c1CNC(=O)CS(=O)(=O)CC(=O)NCc1c(CC)nc2c(cnn2CC)c1NC1CCN(C(N)=O)CC1 [Example 12, 4,4′-{sulfonylbis[(1-oxo-2,1-ethanediyl)iminomethanediyl(1,6-diethyl-1H-pyrazolo[3,4-b]pyridine-5,4-diyl)imino]}di(1-piperidinecarboxamide) trifluoroacetate]",0.0158 to 0.1 nM
9,"CCc1nc2c(cnn2CC)c(NC2CCOCC2)c1CNC(=O)CCc1ccc(C(=O)NCc2c(CC)nc3c(cnn3CC)c2NC2CCOCC2)cc1 [Example 1, N-{[1,6-diethyl-4-(tetrahydro-2H-pyran-4-ylamino)-1H-pyrazolo[3,4-b]pyridin-5-yl]methyl}-4-[3-({[1,6-diethyl-4-(tetrahydro-2H-pyran-4-ylamino)-1H-pyrazolo[3,4-b]pyridin-5-yl]methyl}amino)-3-oxopropyl]benzamide]",0.0158 to 0.1 nM

# Test system: TNF-α production in human PBMC (peripheral blood mononuclear cells)
# Experiment: Inhibition of TNF-alpha production in human PBMC (MSD technology)
# Type: cell-based
# Conditions: inhibition of LPS-stimulated TNF-α production in human PBMC; measured and/or mean; read-out: PBMC pIC50 (MSD assay) (converted)
# Method: A 96-well plate (96 MicroWell™ Plates Nunclon™Δ-High Flange Design, Fisher Scientific UK, Bishop Meadow Road, Loughborough LE 11 5 RG, Leicestershire, UK) is prepared by initially adding to column 1 ca. 10 mM of test compound dissolved in DMSO. […] The compound is further diluted with DMSO into columns 2 to 9 by 8 successive 3fold dilutions using the Biomek® FX Laboratory Automation Workstation (Beckman Coulter, Inc., 4300 N. Harbor Boulevard, P.O. Box 3100, Fullerton, Calif. 92834-3100 USA). Column 10 is used as a DMSO negative control (High Signal, 0% response), whilst column 11, which contains 10 mM of the PDE4 inhibitor roflumilast, is used as a positive control (Low Signal, 100% response). About 1 μl (about 1 ul) of compound is transferred to the compound plate using the Biomek® FX.
# PBMC cells (peripheral blood mononuclear cells) are prepared from heparinised human blood (using 1% v/v Heparin Sodium 10001 U/ml Endotoxin Free, Leo Laboratories Ltd., Cashel Road, Dublin 12. Ireland, Cat No: PL0043/0149) from normal volunteers using the Accuspin™ System-Histopaque®-1077 essentially (Sigma-Aldrich Company Ltd., The Old Brickyard New Rd, Gillingham Dorset SP8 4XT). About 20 ml of blood is overlaid onto 15 ml Histopaque® in Accuspin™ tubes. The tube is then centrifuged at about 800 g for ca. 20 minutes. The cells are collected from the interface, washed by centrifugation (ca. 1300 g, ca. 10 minutes) and resuspended in RPMI1640 medium (Low endotoxin RPMI1640 medium, Cat No: 31870-025, Invitrogen Corporation Invitrogen Ltd, 3 Fountain Drive, Inchinnan Business Park, Paisley PA4 9RF, UK) containing 10% foetal calf serum, 1% L-glutamine (Invitrogen Corporation, Cat No: 25030024) and 1% penicillin/streptomycin (Invitrogen Corporation, Cat No: 15140-122). Viable cells are counted by trypan blue staining and diluted to 1×10^6 viable cells/ml. About 50 μl (about 50 ul) of diluted cells and about 75 μl (about 75 ul) of LPS (ca. 1 ng/ml final; Sigma Cat No: L-6386) are added to the compound plate, which is then incubated at 37° C., 5% CO2, for 20 hours.
# The supernatant is removed and the concentrations of TNF-α are determined by electrochemiluminescence assay using the Meso Scale Discovery (MSD) technology (Meso Scale Discovery, 9238 Gaither Road, Gaithersburg, Md. 20877, USA). See the “TNF-α (TNF-alpha) MSD Assay” described below for typical details.
# Using the Biomek FX, 25 μl (25 ul) of MSD Human Serum Cytokine Assay Diluent (Meso Scale Discovery, 9238 Gaither Road, Gaithersburg, Md. 20877) is added to a 96-well High-Bind MSD plate pre-coated with anti-hTNF alpha capture antibody (MA6000) and then incubated for 24 hours at 4° C. to prevent non-specific binding. […]
# For the PBMC assay, about 20 μl (ul) of diluted sulfo-TAG antibody (ca. 1 μg/ml final) is added to each well, and the plates/wells are shaken at room temperature for 2 hours. Finally, about 90 μl (ul) of MSD Read Buffer P (diluted to 2.5 times with distilled water) is added and the plates are read on a MSD Sector 6000.
# Data analysis is performed with ActivityBase/XC50 module (ID Business Solutions Ltd., 2 Occam Court, Surrey Research Park, Guildford, Surrey, GU2 7QB UK). Data are normalized and expressed as % inhibition using the formula 100*((U-C1)/(C2-C1)) where U is the unknown value, C1 is the average of the high signal (0%) control wells (column 10), and C2 is the average of the low signal (100%) control wells (column 11). […]
row,Compound,IC50
1,"CCc1nc2c(cnn2CC)c(NC2CCOCC2)c1CNC(=O)c1cccc(-c2cccc(C(=O)NCc3c(CC)nc4c(cnn4CC)c3NC3CCOCC3)c2)c1 [Example 10, N,N′-bis{[1,6-diethyl-4-(tetrahydro-2H-pyran-4-ylamino)-1H-pyrazolo[3,4-b]pyridin-5-yl]methyl}-3,3′-biphenyldicarboxamide]",~0.02 nM
